The structures appear in SMILES notation.

The target in the first data set is T1, GABAA α5 receptor (Rattus norvegicus, UniProt P18508+P19969).
T1 construct: from tissue
T1 sequence (P19969 32-464 limits assumed): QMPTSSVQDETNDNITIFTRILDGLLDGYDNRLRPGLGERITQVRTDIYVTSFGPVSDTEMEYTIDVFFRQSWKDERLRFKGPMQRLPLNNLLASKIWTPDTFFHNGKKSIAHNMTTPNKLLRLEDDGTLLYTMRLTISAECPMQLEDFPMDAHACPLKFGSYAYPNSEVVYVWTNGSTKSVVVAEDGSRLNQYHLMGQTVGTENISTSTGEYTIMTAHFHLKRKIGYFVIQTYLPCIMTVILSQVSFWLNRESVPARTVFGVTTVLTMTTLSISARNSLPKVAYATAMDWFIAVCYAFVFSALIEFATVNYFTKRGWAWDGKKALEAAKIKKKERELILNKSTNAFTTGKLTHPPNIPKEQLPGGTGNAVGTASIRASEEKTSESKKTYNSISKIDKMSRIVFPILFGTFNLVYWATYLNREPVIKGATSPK
T1 sequence (P18508 39-466): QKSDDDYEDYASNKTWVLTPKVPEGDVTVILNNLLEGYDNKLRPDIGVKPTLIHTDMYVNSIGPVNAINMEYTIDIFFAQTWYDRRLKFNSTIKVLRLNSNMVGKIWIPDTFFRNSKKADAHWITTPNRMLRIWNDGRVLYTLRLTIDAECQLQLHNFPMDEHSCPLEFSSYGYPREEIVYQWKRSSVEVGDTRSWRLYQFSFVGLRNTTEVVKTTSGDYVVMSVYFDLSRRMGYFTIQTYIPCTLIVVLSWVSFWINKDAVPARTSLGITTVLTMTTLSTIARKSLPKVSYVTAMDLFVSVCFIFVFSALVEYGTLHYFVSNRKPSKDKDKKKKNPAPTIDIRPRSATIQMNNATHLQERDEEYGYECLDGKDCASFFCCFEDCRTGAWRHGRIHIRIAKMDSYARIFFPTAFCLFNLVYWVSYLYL
Put plainly: GABAA α5 receptor occupancy with Ro 15-4513 tracer, hippocampus vs cerebellum. The class given is in vivo, Long Evans rats. The following applies: 0.01-10 mg/kg, i.v. How it is done: Food and water were available ad libitum.
The (100 μl) supernatant solution was diluted by […] of sterile water (pH 6.5).
`CCOC(=O)c1ncn2c1Cn1c(C)nnc1-c1cc(OC)ccc1-2` [Ethyl 3-methoxy-7-methyl-9H-benzo[f]imidazo[1,5-a][1,2,4]tri]: the “Ro 15-4513 binding in hippocampus” value is on record as “blocked” and the “cerebellum levels (binding) of Ro 15-4513” value is “did not affect”.

Still in this data set, the particulars now being: tracer 1 μg/kg, i.v., after vehicle.
Turning to `CCOC(=O)c1ncn2c1CN(C)C(=O)c1cc(N=[N+]=[N-])ccc1-2` [Ro 15-4513], the “Ro 15-4513 level in hippocampus compared with cerebellum” value is more than 5 fold.

A further data set relates to aged-impaired (AI) rats. Put plainly: Morris water maze behavioral task, ICV infusion. The following applies: 100 μg ICV. It is filed as in vivo, rat. The source says: Cognitively impaired aged rats were implanted unilaterally with a cannula into the lateral ventricle. Stereotaxic coordinates were 1.0 mm posterior to bregma, 1.5 mm lateral to midline, and 3.5 mm ventral to the skull surface. After about a week of recovery, the rats were pre-trained in a water maze for 2 days (6 trials per day) to locate a submerged escape platform hidden underneath the surface of the pool, in which the escape platform location varied from day to day. No intracerebroventricular (ICY) infusion was given during pre-training.
After pre-training, rats received ICV infusion of either 100 μg 6,6 dimethyl-3-(3-hydroxypropypthio-1-(thiazol-2-yl)-6,7-dihydro-2-benzothiophen-4(5H)-one (n=6) in 5 μl DMSO or vehicle DMSO (n=5) 40 min prior to water maze training and testing. Training consisted of 8 trials per day for 2 days where the hidden escape platform remained in the same location. Rats were given 60 seconds to locate the platform with a 60 seconds inter-trial interval. The rats were given a probe test (120 seconds) 24 hr. after the end of training where the escape platform was removed. During the training, there were 4 blocks, where each block had 4 training trials.
During a test trial 24 hr. after training, the escape platform was removed. The search/swim pattern of the rats was used to measure whether the rats remember where the escape platform was located during pre-trial training in order to test for the long-term memory of the rats. In this trial, “target annulus” is a designated area 1.5 times the size of the escape platform around the area where the platform was located during pre-trial training. “Opposite annulus” is a control area of the same size as the size of the target annulus, which is located opposite to the target annulus in the pool. If the rats had good long term memory, they would tend to search in the area surrounding the location where the platform was during the pre-trial training (i.e., the “target” annulus; and not the “opposite” annulus). “Time in annulus” is the amount of time in seconds that the rat spent in the target or opposite annulus area. “Number (#) of crossings” in annulus is the number of times the rat swam across the target or opposite annulus area.
For the compound `CC1(C)CC(=O)c2c(SCCCO)sc(-c3nccs3)c2C1` [6,6 dimethyl-3-(3-hydroxypropyl)thio-1-(thiazol-2-yl)-6,7-dihydro-2-benzothiophen-4(5H)-one], the “time to find the escape platform, block 1 (beginning of training)” value was “about 24 seconds” and the “time to find the escape platform, block 4 (end of training)” value is given as “about 9.6 seconds”.

The same data set, now with this note: 100 μg ICV, 24 hr. after training.
On to `CC1(C)CC(=O)c2c(SCCCO)sc(-c3nccs3)c2C1` [6,6 dimethyl-3-(3-hydroxypropyl)thio-1-(thiazol-2-yl)-6,7-dihydro-2-benzothiophen-4(5H)-one], for which the “number of crossings of target annulus compared with opposite annulus, probe test” value is given as “more often” and the “time in target annulus compared with opposite annulus, probe test” value was “significantly more time”.

In a further data set the target is T2, α5β3γ2 GABAA receptors (Ltk cell membranes) (Homo sapiens, UniProt P18507+P31644).
T2 construct: membranes
T2 sequence (P31644 32-462): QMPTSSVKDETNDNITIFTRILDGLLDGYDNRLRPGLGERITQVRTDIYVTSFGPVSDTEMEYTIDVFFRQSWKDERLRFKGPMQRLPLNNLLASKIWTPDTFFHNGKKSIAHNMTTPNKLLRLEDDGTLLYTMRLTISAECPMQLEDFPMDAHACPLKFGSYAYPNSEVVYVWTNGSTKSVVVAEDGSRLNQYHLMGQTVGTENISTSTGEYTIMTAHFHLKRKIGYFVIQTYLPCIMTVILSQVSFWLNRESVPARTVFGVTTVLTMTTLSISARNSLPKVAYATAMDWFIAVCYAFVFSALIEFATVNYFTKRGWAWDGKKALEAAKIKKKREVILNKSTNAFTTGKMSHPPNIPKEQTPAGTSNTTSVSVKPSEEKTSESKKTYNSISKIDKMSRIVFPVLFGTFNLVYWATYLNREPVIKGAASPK
T2 sequence (P28472 26-473 partner): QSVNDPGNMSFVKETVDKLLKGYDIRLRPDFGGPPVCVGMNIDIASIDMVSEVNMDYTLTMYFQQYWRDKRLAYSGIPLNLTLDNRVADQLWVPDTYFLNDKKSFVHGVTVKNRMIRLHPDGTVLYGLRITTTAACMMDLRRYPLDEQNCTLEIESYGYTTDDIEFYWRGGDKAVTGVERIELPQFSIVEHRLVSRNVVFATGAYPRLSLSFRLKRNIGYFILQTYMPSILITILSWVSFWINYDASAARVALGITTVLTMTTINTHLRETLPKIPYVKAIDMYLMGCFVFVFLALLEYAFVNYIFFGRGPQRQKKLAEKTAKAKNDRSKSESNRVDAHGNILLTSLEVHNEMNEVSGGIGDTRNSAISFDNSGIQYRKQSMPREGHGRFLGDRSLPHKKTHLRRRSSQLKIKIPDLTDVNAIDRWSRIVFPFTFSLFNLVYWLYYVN
T2 sequence (P18507 40-475): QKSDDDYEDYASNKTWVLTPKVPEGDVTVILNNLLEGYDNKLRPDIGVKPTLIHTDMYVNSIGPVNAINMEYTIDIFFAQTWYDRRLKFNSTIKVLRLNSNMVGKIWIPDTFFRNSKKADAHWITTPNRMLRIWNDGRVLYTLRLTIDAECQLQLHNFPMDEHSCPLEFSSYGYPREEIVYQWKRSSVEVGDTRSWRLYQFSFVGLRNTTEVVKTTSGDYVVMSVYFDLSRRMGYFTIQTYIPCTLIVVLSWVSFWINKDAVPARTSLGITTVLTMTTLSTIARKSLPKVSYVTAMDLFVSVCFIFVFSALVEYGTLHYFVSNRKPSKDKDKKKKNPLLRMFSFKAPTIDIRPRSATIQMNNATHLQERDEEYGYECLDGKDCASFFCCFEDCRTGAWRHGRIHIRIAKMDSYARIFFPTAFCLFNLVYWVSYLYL
Nature of the data set: Binding activity of test compounds on GABAAR: inhibition of [3H]Ro15-1788 binding.
Conditions: not given
In a few lines:
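Membranes from dexamethasone-induced Ltk cells (α5 line: 0.5 μM, 1 day); binding with [3H]Ro15-1788 for 1 h at 4 °C in 50 mM KH2PO4, 1 mM EDTA, 0.2 M KCl, pH 7.4, 0.2 mg/ml α5 protein. Nonspecific binding defined by 10 μM diazepam; filtration, scintillation counting, triplicates.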
The compound `CC(C)OCc1nnc2n1Cc1c(/C=C/c3ccccc3)ncn1-c1ccc(Cl)cc1-2` [Compound 446] showed a Ki of more than 1000 nM. On the same count and under the same terms, the figure for `CC(C)OCc1nnc2n1Cc1c(/C=C/c3ccc(F)cc3)ncn1-c1ccc(Cl)cc1-2` [Compound 447] is more than 1000 nM; for `COCc1nnc2n1Cc1c(-c3nc(C)no3)ncn1-c1cc(Cl)ccc1-2` [Compound 457] it is more than 1000 nM. Same read-out and setting: to `COCc1nnc2n1Cc1c(-c3nc(C)no3)ncn1-c1c(Cl)cccc1-2` [Compound 463] belongs more than 1000 nM; to `COCc1nnc2n1Cc1c(-c3ncco3)ncn1-c1c(Cl)cccc1-2` [Compound 466], more than 1000 nM.

The same data set, now with this note: GABA α5 Binding Ki Values, inhibition of [3H]Ro15-1788 binding; reported as ranges.
`COCc1nnc2n1Cc1c(C#CCc3cccc(Cl)c3)ncn1-c1ccc(Cl)cc1-2` [Compound 422] registered a Ki of less than 100 nM. The compound `COCc1nnc2n1Cc1c(C#CCc3cccc(OC(F)(F)F)c3)ncn1-c1ccc(Cl)cc1-2` [Compound 423] displayed a Ki of less than 100 nM. Take `COc1ccc2c(c1)-n1nncc1Cc1c(C#CC(C)C)ncn1-2` [Compound 424]: the inhibitory constant (Ki) is less than 100 nM.

`Cc1noc(-c2ncn3c2Cc2cnnn2-c2cc(Cl)ccc2-3)n1` [Compound 425] gave a Ki of less than 100 nM. In the case of `CC(C)c1noc(-c2ncn3c2Cc2cnnn2-c2cc(Cl)ccc2-3)n1` [Compound 426], the Ki is less than 100 nM. The same measure, in the same setting: the figure for `COCc1nnc2n1Cc1c(-c3noc(C)n3)ncn1-c1ccc(Cl)cc1-2` [Compound 427] is less than 100 nM; for `O=C(C#Cc1ncn2c1Cc1cnnn1-c1cc(Cl)ccc1-2)c1ccccc1` [Compound 448] it is less than 100 nM; for `C#Cc1ncn2c1C(Cc1ccccc1)c1cnnn1-c1cc(OC)ccc1-2` (stereo not shown) [Compound 449] it is more than 1000 nM. Take `C#Cc1ncn2c1C(Cc1cccc(F)c1)(Cc1cccc(F)c1)c1cnnn1-c1cc(OC)ccc1-2` [Compound 450]: the inhibition constant Ki was more than 1000 nM. Still for that read-out and setting: the figure for `C#Cc1ncn2c1C(Cc1ccccc1F)c1cnnn1-c1cc(OC)ccc1-2` (stereo not shown) [Compound 451] is less than 100 nM.

In the case of `Clc1ccc2c(c1)-n1nncc1Cc1c(Br)ncn1-2` [Compound 452], the Ki is less than 100 nM.

`CC(C)C#Cc1ccc2c(c1)-n1nncc1Cc1c(C#CC(C)C)ncn1-2` [Compound 453] showed a Ki of 100 to 1000 nM. On the same count and under the same terms, to `CC(C)C#Cc1ccc2c(c1)-n1nncc1Cc1c(Br)ncn1-2` [Compound 454] belongs less than 100 nM; to `COCc1nnc2n1Cc1c(C#CC(=O)c3ccccc3)ncn1-c1ccc(Cl)cc1-2` [Compound 455], less than 100 nM; to `COCc1nnc2n1Cc1c(-c3nc(C)no3)ncn1-c1ccc(OC(F)(F)F)cc1-2` [Compound 456], less than 100 nM. For `COCc1nnc2n1Cc1c(-c3nc(C)no3)ncn1-c1ccc(C(F)(F)F)cc1-2` [Compound 459], the Ki was less than 100 nM.

The compound `COCc1nnc2n1Cc1c(C3=NCCO3)ncn1-c1ccc(OC(F)(F)F)cc1-2` [Compound 460] had an inhibition constant Ki of 100 to 1000 nM. For the compound `COCc1nnc2n1Cc1c(-c3nc(C)no3)ncn1-c1ccc(Br)cc1-2` [Compound 461], the Ki is less than 100 nM.

`COCc1nnc2n1Cc1c(-c3nc(C)no3)ncn1-c1ccc(-c3ccccc3)cc1-2` [Compound 462] had a Ki of less than 100 nM. On the same count and under the same terms, the figure for `COCc1nnc2n1Cc1c(-c3nc(C)no3)ncn1-c1ccc(C#N)cc1-2` [Compound 465] is less than 100 nM.

On to `COCc1nnc2n1Cc1c(-c3ncco3)ncn1-c1ccc(OC(F)(F)F)cc1-2` [Compound 467], for which the Ki was less than 100 nM. Consider `COCc1nnc2n1Cc1c(-c3nc(C)no3)ncn1-c1ccc(-c3cccnc3)cc1-2` [Compound 469], for which the Ki is 100 to 1000 nM. As for `COCc1nnc2n1Cc1c(C3=NCCO3)ncn1-c1ccc(C(F)(F)F)cc1-2` [Compound 470], the Ki fell in the range of 100 to 1000 nM.

In the case of `COCc1nnc2n1Cc1c(-c3ncco3)ncn1-c1ccc(C(F)(F)F)cc1-2` [Compound 471], the Ki was less than 100 nM.

The data set is the same for the next values; noted with them: inhibition of [3H]Ro15-1788 binding; reported as ranges.
For `COCc1nnc2n1Cc1c(COc3ccccc3)ncn1-c1ccc(Cl)cc1-2` [Compound 429], the inhibitory constant (Ki) is more than 1000 nM.

`COCc1nnc2n1Cc1c(COCc3ccccc3)ncn1-c1ccc(Cl)cc1-2` [Compound 430] had a Ki of more than 1000 nM. On the same count and under the same terms, to `COCc1nnc2n1Cc1c(COCc3ccccc3F)ncn1-c1ccc(Cl)cc1-2` [Compound 431] belongs more than 1000 nM. The same measure, in the same setting: to `COCc1nnc2n1Cc1c(COCc3cccc(F)c3)ncn1-c1ccc(Cl)cc1-2` [Compound 432] belongs more than 1000 nM; to `COCc1nnc2n1Cc1c(COc3ccccc3F)ncn1-c1ccc(Cl)cc1-2` [Compound 433], more than 1000 nM.

Compound `COCc1nnc2n1Cc1c(COc3cccc(F)c3)ncn1-c1ccc(Cl)cc1-2` [Compound 434] returned a Ki of more than 1000 nM. `COCc1nnc2n1Cc1c(COc3ccc(F)cc3)ncn1-c1ccc(Cl)cc1-2` [Compound 435] showed a Ki of more than 1000 nM.

Usually Ki stands for the equilibrium dissociation constant of an inhibitor or competing ligand from its target. A higher Ki goes with lower affinity.

For the origin of these results see US20180170941A1 (priority 2016, published 2018).
